Measured values from ChEMBL document CHEMBL5131537 (J Med Chem, 2022).

How the values were obtained:
[1] = Acute toxicity in 12 hr fasted female CD-1(ICR) mouse assessed as pathological damage in lung at 2 g/kg, IG administered as single dose measured after 14 days by H and E staining based analysis; format: tissue-based; conditions: in vivo, po, 2000 mg/kg, 336 h, time 14 day
Cytochrome P450 1A2 = target: T1, Cytochrome P450 1A2 (Homo sapiens, UniProt P05177); assay: Inhibition of CYP1A2 in human liver microsomes using phenacetin as substrate incubated for 15 to 45 mins in presence of NADPH
T1 sequence (P05177 whole entry): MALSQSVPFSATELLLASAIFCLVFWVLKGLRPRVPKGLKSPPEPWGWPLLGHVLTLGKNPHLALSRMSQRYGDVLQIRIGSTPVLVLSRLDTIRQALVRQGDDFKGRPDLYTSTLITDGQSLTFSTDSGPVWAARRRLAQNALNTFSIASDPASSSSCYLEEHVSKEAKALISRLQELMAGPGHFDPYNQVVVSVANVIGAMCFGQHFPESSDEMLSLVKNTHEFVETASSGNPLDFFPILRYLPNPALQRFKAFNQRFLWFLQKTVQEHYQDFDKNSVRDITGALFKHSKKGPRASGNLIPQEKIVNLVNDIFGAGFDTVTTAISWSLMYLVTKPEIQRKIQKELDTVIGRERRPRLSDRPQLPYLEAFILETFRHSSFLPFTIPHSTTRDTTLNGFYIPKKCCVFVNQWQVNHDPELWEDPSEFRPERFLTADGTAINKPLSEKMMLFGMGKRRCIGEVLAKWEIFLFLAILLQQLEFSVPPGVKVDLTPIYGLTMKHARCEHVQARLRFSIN

[2] = Acute toxicity in 12 hr fasted female CD-1(ICR) mouse assessed as pathological damage in brain at 2 g/kg, IG administered as single dose measured after 14 days by H and E staining based analysis; format: tissue-based; conditions: in vivo, po, 2000 mg/kg, 336 h, time 14 day
[3] = Acute toxicity in 12 hr fasted male CD-1(ICR) mouse assessed as pathological damage in lung at 2 g/kg, IG administered as single dose measured after 14 days by H and E staining based analysis; format: tissue-based; conditions: in vivo, po, 2000 mg/kg, 336 h, time 14 day
[4] = test system: Human immunodeficiency virus 1; assay: Antiviral activity against HIV-1 IIIB harboring reverse transcriptase E138K mutant infected in human MT4 cells by MTT assay; format: functional, organism-based; conditions: Human immunodeficiency virus 1, IIIB
[5] = target: Human immunodeficiency virus type 1 reverse transcriptase (Human immunodeficiency virus 1, UniProt Q72547)
Description: Inhibition of HIV-1 reverse transcriptase using oligo(dT)16 as primer measured after 40 mins by picogreen-dye based spectrofluorometric analysis

[6] = Acute toxicity in 12 hr fasted female CD-1(ICR) mouse assessed as pathological damage in liver at 2 g/kg, IG administered as single dose measured after 14 days by H and E staining based analysis; format: tissue-based; conditions: in vivo, po, 2000 mg/kg, 336 h, time 14 day
[7] = MRT (0 to infinity) in Sprague-Dawley rat at 1 mg/kg, iv measured after 0.083 to 24 hrs by LC-MS analysis; format: ADME, organism-based; conditions: in vivo, time 0.083-24 hrs
[8] = Acute toxicity in 12 hr fasted male CD-1(ICR) mouse assessed as changes in body weight at 2 g/kg, IG administered as single dose measured after 14 days; conditions: in vivo, po, 2000 mg/kg, 336 h, time 14 day
[9] = test system: Human immunodeficiency virus 1; assay: Antiviral activity against HIV-1 IIIB harboring reverse transcriptase […] mutant infected in human MT4 cells by MTT assay; format: functional, organism-based; conditions: Human immunodeficiency virus 1, IIIB
[10] = Acute toxicity in 12 hr fasted female CD-1(ICR) mouse assessed as animal death at 2 g/kg, IG administered as single dose measured after 14 days; conditions: in vivo, po, 2000 mg/kg, 336 h, time 14 day

Structure (SMILES): COc1cc(-c2ccc(C#N)cc2)ccc1Oc1cc(N)nc(Nc2ccc(C#N)cc2)n1
- Activity [1]: Non-Toxic
- IC50 (Cytochrome P450 1A2): > 50000 nM
- Activity [2]: Non-Toxic
- Activity [3]: Non-Toxic
- EC50 [4]: 9 nM
- IC50 [5]: 36 nM
- Activity [6]: Non-Toxic
- MRT inf [7]: 1.18 h
- Activity [8]: Non-Toxic
- EC50 [9]: 19 nM
- Activity [10]: Non-Toxic
